Experimental data published in patent US20120121535A1, “AGENT FOR PREVENTING RECURRENCE OF LEUKEMIA” (RIKEN, priority 2009, published 2012).

Tests used:
[1] = test system: hCD34+ cells, including LSCs; assay: Percentage and absolute number of remaining viable hCD45+CD34+ cells in recipient BM; assay type: in vivo, NOD/SCID/IL2rg^null mice transplanted with human AML; settings: mean +/− SEM; for #CD45+CD34+/mouse (×10^6): two tibiae and one femur; for % CD45+CD34+: viable cells in BM
Text: (§1) For experiments involving administration of G-CSF alone, administration of Ara-C alone, and administration of G-CSF followed by administration of Ara-C, recipients of primary transplantation of human AML were used 16 to 24 weeks after transplantation. For each experiment for comparison of various dose groups, a pair of recipients was selected from among litter mates, with the same primary AML sample transplanted in the same amount on the same day so as to suppress variation among the litter mates and variation due to differences in transplantation level. Performed were administration of recombinant human G-CSF (Wako, Japan): 300 μg/kg s.c. qd×5 days; administration of Ara-C (Biogenesis, Poole, UK): 1 g/kg i.p. qd×2 days; administration of G-CSF+Ara-C: G-CSF 300 μg/kg s.c. qd×5 days, and concurrent administration of Ara-C 1 g/kg i.p. qd×2 days on days 4 and 5 of administration. The recipients were killed 16 hours after final injection. BrdU (1.5 mg/mouse; BD Biosciences, Calif.) was injected by i.p. to recipients under a cell cycle analysis by BrdU uptake immediately after the final injection (s.c. stands for subcutaneous administration, and i.p. for intraperitoneal administration).
(§2) For evaluation of human AML transplantation, blood was drawn from the orbital sinus of each recipient every 3 weeks starting at week 6 after transplantation. Myelocytes were recovered from two tibiae and one femur from each analyzed recipient; MNCs (mononucleocytes) were counted manually and using an automated blood cell analyzer (Celltac α, Nihon Kohden, Japan), and the absolute number of BMMNCs derived from each recipient was estimated. The absolute number of human CD34^+ cells (derived from two tibiae and one femur) per mouse was determined by multiplying the thus-obtained total BMMNC count by 7AAD^−hCD45^+hCD34^+ BM cells (%). BrdU uptake was measured using a BrdU flow kit (BD Pharmingen, Calif.). To quantify cells in the G0 phase of the cell cycle, the cells were stained with Hoechst 33342 and Pyronin Y, and then surface-stained using standard procedures. Quantitation of cells undergoing apoptosis was performed by staining activated caspase-3 in the cells using a rabbit anti-activated caspase-3 monoclonal antibody (BD Pharmingen, Calif.). Surface labeling was achieved using mouse anti-human CD45, anti-CD34 and anti-CD38 monoclonal antibodies (BD Immunocytometry). Analyses were performed using FACSAria and FACSCanto II (Becton Dickinson, Calif.).
To evaluate the frequency and function of LSCs remaining after each dosing, limited dilution and secondary transplantation of living hCD34^+ BM cells, including leukemia stem cells sorted from recipients given administration of Ara-C alone or G-CSF+Ara-C, were performed. The absolute number of hCD34^+ cells was obtained from the number of mononucleocytes in two tibiae and one femur derived from each recipient, and viable hCD34^+ cell (%) was obtained by flow cytometry.
The results are shown as mean value +/− SEM; differences were examined by two-tailed t-test.

[2] = test system: LSCs; assay: Limited dilution secondary transplantation of sorted hCD34+ BM cells (LSC frequency, survival of secondary recipients); assay type: in vivo, NOD/SCID/IL2rg^null mice transplanted with human AML; settings: secondary recipients of hCD34+ cells from treated mice
Text: Newborn (within 2 days of birth) NOD/SCID/IL2rg^null recipient received 150 cGy of total body irradiation using a ^137Cs-source irradiator, followed by intravenous injection of AML cells within two hours. For primary transplantation, 10^3 to 5×10^4 sorted BM cells per recipient from a 7AAD^− lineage (hCD3/hCD4/hCD8) ^−hCD34^+hCD38^− AML patient were used, as described in F. Ishikawa et al., Nat. Biotechnol. 25, 1315 (2007). For secondary transplantation after administration of Ara-C (cytarabine) alone or after administration of G-CSF followed by administration of Ara-C, 2×10^2, 2×10^3, 2×10^4, or 2×10^5 sorted 7AAD^−hCD45^+hCD34^+ BM cells per recipient were used. For fluorescence-activated cell sorting, BMMNC cells from AML patients were labeled with fluorescent dye-conjugated mouse anti-hCD3, anti-hCD4, anti-hCD8, anti-hCD34 and anti-hCD38 monoclonal antibodies (BD Immunocytometry), and BMMNC cells from recipients were labeled with mouse anti-hCD45, anti-hCD34 and anti-hCD38 monoclonal antibodies (BD Immunocytometry); the cells were sorted using FACSAria (Beckton Dickinson, Calif.). Doublets were eliminated via analysis of FSC/SSC-height and FSC/SSC-width. […]
Differences in the ratios/absolute numbers of cells (%), activated caspase-negative cells (%), and BM CD34^+ cells in the cell cycle were analyzed using two-tailed t-test (GraphPad Prism, GraphPad, San Diego, Calif.). […]

[3] = test system: AML cells in the endosteum; assay: HE and TUNEL staining of bone sections; assay type: in vivo, NOD/SCID/IL2rg^null mice transplanted with human AML; settings: bone sections of recipients
Text: For experiments involving administration of G-CSF alone, administration of Ara-C alone, and administration of G-CSF followed by administration of Ara-C, recipients of primary transplantation of human AML were used 16 to 24 weeks after transplantation. For each experiment for comparison of various dose groups, a pair of recipients was selected from among litter mates, with the same primary AML sample transplanted in the same amount on the same day so as to suppress variation among the litter mates and variation due to differences in transplantation level. […]
After administration of Ara-C alone or after administration of Ara-C following pre-administration of G-CSF, the BM of the recipients was evaluated in terms of 1) a flow cytometry fraction of activated caspase-3 positive LSCs undergoing apoptosis, 2) histological localization of cells undergoing apoptosis in the recipient BM as determined by TUNEL staining, 3) percentage and absolute number of remaining viable hCD34^+ AML cells, and 4) frequency and AML-causing potential of remaining LSCs in alternative measurements of the likelihood of AML recurrence via limited dilution and sequential transplantation of sorted hCD34^+ cells. […]

[4] = test system: hCD34+CD38− LSCs; assay: Flow cytometric cell cycle analysis of LSCs in BM of recipients of primary transplantation of human AML; assay type: in vivo, NOD/SCID/IL2rg^null mice transplanted with human AML
Text: Newborn (within 2 days of birth) NOD/SCID/IL2rg^null recipient received 150 cGy of total body irradiation using a ^137Cs-source irradiator, followed by intravenous injection of AML cells within two hours. For primary transplantation, 10^3 to 5×10^4 sorted BM cells per recipient from a 7AAD^− lineage (hCD3/hCD4/hCD8) ^−hCD34^+hCD38^− AML patient were used, as described in F. Ishikawa et al., Nat. Biotechnol. 25, 1315 (2007). For secondary transplantation after administration of Ara-C (cytarabine) alone or after administration of G-CSF followed by administration of Ara-C, 2×10^2, 2×10^3, 2×10^4, or 2×10^5 sorted 7AAD^−hCD45^+hCD34^+ BM cells per recipient were used. For fluorescence-activated cell sorting, BMMNC cells from AML patients were labeled with fluorescent dye-conjugated mouse anti-hCD3, anti-hCD4, anti-hCD8, anti-hCD34 and anti-hCD38 monoclonal antibodies (BD Immunocytometry), and BMMNC cells from recipients were labeled with mouse anti-hCD45, anti-hCD34 and anti-hCD38 monoclonal antibodies (BD Immunocytometry); the cells were sorted using FACSAria (Beckton Dickinson, Calif.). Doublets were eliminated via analysis of FSC/SSC-height and FSC/SSC-width. After the sorting, the purities of hCD34^+hCD38^− cells and hCD34^+ cells exceeded 98%.
For experiments involving administration of G-CSF alone, administration of Ara-C alone, and administration of G-CSF followed by administration of Ara-C, recipients of primary transplantation of human AML were used 16 to 24 weeks after transplantation. […]
as §2, with “Surface labeling was achieved using mouse anti-human CD45, anti-CD34 and anti-CD38 monoclonal antibodies (BD Immunocytometry). Analyses were performed using FACSAria and FACSCanto II (Becton Dickinson, Calif.).” left out

[5] = test system: CD34+CD38− LSCs and CD34+CD38+ AML non-stem cells; assay: Activated caspase-3 flow cytometry of BM cells undergoing apoptosis; design: species or system NOD/SCID/IL2rg^null mice transplanted with human AML; settings: in vivo administration, recipient BM
Description: Myelocytes were recovered from two tibiae and one femur from each analyzed recipient; MNCs (mononucleocytes) were counted manually and using an automated blood cell analyzer (Celltac α, Nihon Kohden, Japan), and the absolute number of BMMNCs derived from each recipient was estimated. The absolute number of human CD34^+ cells (derived from two tibiae and one femur) per mouse was determined by multiplying the thus-obtained total BMMNC count by 7AAD^−hCD45^+hCD34^+ BM cells (%). BrdU uptake was measured using a BrdU flow kit (BD Pharmingen, Calif.). To quantify cells in the G0 phase of the cell cycle, the cells were stained with Hoechst 33342 and Pyronin Y, and then surface-stained using standard procedures. […]

[6] = test system: AML cells in the endosteal region; assay: Histological analysis of bone sections (BrdU uptake, Ki67 immunofluorescence) of recipients of human AML; assay type: in vivo, NOD/SCID/IL2rg^null mice transplanted with human AML
Text: as §1
Paraformaldehyde-fixed, decalcified, paraffin-embedded sections were prepared from femurs of the recipients primarily transplanted with AML. […]

[7] = post-Ara-C, intraperitoneal, n=15
[8] = after administration of G-CSF in vivo, all cases examined

## Nc1ccn([C@@H]2O[C@H](CO)[C@@H](O)[C@@H]2O)c(=O)n1 [Ara-C, cytarabine]
[1]; Case ID 1
  #CD45+CD34+/mouse (×10^6): 1.4 +/− 0.3 ×10^6
  % CD45+CD34+: 29.7 +/− 1.6%
[1]; Case ID 2
  #CD45+CD34+/mouse (×10^6): 4.9 +/− 0.7 ×10^6
  % CD45+CD34+: 84.9 +/− 2.5%
[1]; Case ID 3
  #CD45+CD34+/mouse (×10^6): 2.3 +/− 0.1 ×10^6
  % CD45+CD34+: 80.2 +/− 2.3%
[1]; Case ID 4
  #CD45+CD34+/mouse (×10^6): 3.6 +/− 0.8 ×10^6
  % CD45+CD34+: 68.0 +/− 2.8%
[1]; Case ID 5
  #CD45+CD34+/mouse (×10^6): 2.1 +/− 0.2 ×10^6
  % CD45+CD34+: 61.5 +/− 7.5%
[1]; Case ID 6
  #CD45+CD34+/mouse (×10^6): 5.3 +/− 1.4 ×10^6
  % CD45+CD34+: 49.0 +/− 9.2%
[1]; Case ID 7
  #CD45+CD34+/mouse (×10^6): 0.7 +/− 0.1 ×10^6
  % CD45+CD34+: 16.5 +/− 1.7%
[2]
  Secondary mouse recipients surviving beyond 19 weeks after transplantation: None
[3]
  Cell death in the endosteum (TUNEL and HE staining): TUNEL-negative AML cells remaining in the endosteum
[4]; [7]
  % G0/G1 of CD34+CD38− AML cells: 91.7+/−2.3%
  % S of CD34+CD38− AML cells: 0.1+/−0.1%
[5]
  Apoptosis of CD34+CD38+ AML non-stem cells (activated caspase-3): underwent apoptosis
  Apoptosis of CD34+CD38− LSCs (activated caspase-3): the majority of CD34^+CD38^− LSCs did not

B1: G-CSF: recombinant human G-CSF (Wako, Japan), granulocyte colony stimulation factor (protein)
chain: TPLGPASSLPQSFLLKCLEQVRKIQGDGAALQEKLVSECATYKLCHPEELVLLGHSLGIPWAPLSSCPSQALQLAGCLSQLHSGLFLYQGLLQALEGISPELGPTLDTLQLDVADFATTIWQQMEELGMAPALQPTQGAMPAFASAFQRRAGGVLVASHLQSFLEVSYRVLRHLAQP
[6]; after 5 days of administration of G-CSF
  Expression of Ki67 in AML cells in BM center and endosteal region: expression of Ki67 was induced
[6]; after administration of G-CSF
  BrdU uptake of AML cells in the endosteal region: increase in BrdU uptake
[4]; [8]
  LSCs in the G0 phase fraction: decreased significantly
  LSCs in the S phase and G2/M phase: increased
